# Test results reported in patent US20250282828A1, “PEPTIDES FOR THE TREATMENT OF RESPIRATORY INFECTIONS OF VIRAL ORIGIN” (CENTRO DE INGENIERÍA GENÉTICA Y BIOTECNOLOGÍA, priority 2020, published 2025).
# Read-outs that look alike come from different tables or passages of the source. Non-standard residues stand in square brackets, D forms with d. Residues, ends and D or L forms follow the SMILES beside them. No end group written: not given here.
# Assays:
# [1] = system: SARS-CoV-2
# [2] = system: Dengue 2 virus; experiment: Dengue 2 virus replication in primary cultures of lung cells (PFU in VeroE6); assay type: cell-based; settings: 48 hours
# Description: The cultures were treated with the peptides for 2 or 24 hours, at concentrations of 0.01 to 100 μM before viral challenge. The medium was discarded and the cells were infected with Dengue 2 virus, at an MOI of 10 for 2 hours at 37° C. and 5% CO2. The virus was eliminated, a wash was then performed and the cultures were treated again with peptides in DMEM medium, and incubated for 48 hours at 37° C. and 5% CO2. Subsequently, the cultures were collected to assess viral performance on VeroE6 cells. For this, the cells were seeded in 24-well plates and when they reached confluence they were infected with serial 10-fold dilutions of the supernatants, incubated for 1 hour at 37° C. and 5% CO2. Next, a wash was carried out with PBS, and a layer of agar in 2× DMEM (1:1) added. The layer was allowed to solidify and incubated for 48 hours at 37° C. 5% CO2. The plates were stained with crystal violet, for the determination of the number of PFUs. The peptides inhibited between 68 and 88% of viral replication (Table 5).
# [3] = system: human bocavirus (HBoV); experiment: Human bocavirus replication in tracheal HAE (qPCR NS1 region); assay type: cell-based; settings: 50 μM, 72 hours
# [4] = system: SARS-CoV-2; remark: listed apart in the source
# [5] = system: Parainfluenza virus type 3 (HPIV3); assay type: cell-based; settings: 50 μM; HAE, 3 days
# [6] = biological target: T1, NS1-D2 (Dengue) (Dengue virus type 2, UniProt P29990); experiment: BIACORE surface plasmon resonance interaction with immobilized peptide; assay type: binding, Dengue virus 2
# T1 construct: the non-structural protein 1 of the Dengue virus 2 (NS1-D2)
# T1 sequence (P29990 776-1127 limits assumed): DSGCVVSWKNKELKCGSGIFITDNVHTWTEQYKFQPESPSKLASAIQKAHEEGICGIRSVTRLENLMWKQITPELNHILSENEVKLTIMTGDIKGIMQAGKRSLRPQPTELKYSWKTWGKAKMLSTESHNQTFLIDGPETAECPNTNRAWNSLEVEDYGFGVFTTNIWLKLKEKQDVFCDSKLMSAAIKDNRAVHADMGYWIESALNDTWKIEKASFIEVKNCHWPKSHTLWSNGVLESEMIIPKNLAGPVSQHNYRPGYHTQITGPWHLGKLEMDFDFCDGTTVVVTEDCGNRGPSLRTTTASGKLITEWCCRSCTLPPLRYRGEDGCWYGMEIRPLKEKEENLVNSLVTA
# [7] = system: herpes simplex virus type 1 (HSV-1); experiment: HSV-1 replication in primary explants of human nasal mucosa (qPCR); assay type: cell-based; settings: 36 hours
# Description: The replication of herpes simplex virus type 1 (HSV-1) was performed in primary explants of human nasal mucosa, according to Glorieux et al. (Glorieux et al. 2011, PLoS ONE, 6(7): e22160, doi: 10.1371/journal.pone.0022160). […] Afterwards, the cultures were washed and kept at 37° C. and 5% CO2 for 36 hours, in presence of the peptides in culture medium. The cultures were harvested, and HSV-1 was quantified by qPCR. The percentages of viral inhibition ranged from 70 to 92% in presence of the peptides (Table 5).
# [8] = biological target: T2, Dengue 2 virus capsid protein (Dengue virus type 2, UniProt P29990); experiment: BIACORE surface plasmon resonance interaction with immobilized peptide; assay type: binding
# T2 construct: with the Dengue 2 virus capsid protein
# T2 sequence (P29990 1-100 limits assumed): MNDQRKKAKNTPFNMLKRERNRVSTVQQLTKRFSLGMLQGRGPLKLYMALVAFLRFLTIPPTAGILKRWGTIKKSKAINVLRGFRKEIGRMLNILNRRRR
# [9] = system: capsid protein of the Influenza H1N1 virus; experiment: as above; assay type: binding
# [10] = biological target: T3, ZIKV E protein (Zika) (Zika virus, UniProt A0A024B7W1); experiment: as above; assay type: binding
# T3 construct: the envelope protein of the Zika virus (ZIKV E)
# T3 sequence (A0A024B7W1 291-794): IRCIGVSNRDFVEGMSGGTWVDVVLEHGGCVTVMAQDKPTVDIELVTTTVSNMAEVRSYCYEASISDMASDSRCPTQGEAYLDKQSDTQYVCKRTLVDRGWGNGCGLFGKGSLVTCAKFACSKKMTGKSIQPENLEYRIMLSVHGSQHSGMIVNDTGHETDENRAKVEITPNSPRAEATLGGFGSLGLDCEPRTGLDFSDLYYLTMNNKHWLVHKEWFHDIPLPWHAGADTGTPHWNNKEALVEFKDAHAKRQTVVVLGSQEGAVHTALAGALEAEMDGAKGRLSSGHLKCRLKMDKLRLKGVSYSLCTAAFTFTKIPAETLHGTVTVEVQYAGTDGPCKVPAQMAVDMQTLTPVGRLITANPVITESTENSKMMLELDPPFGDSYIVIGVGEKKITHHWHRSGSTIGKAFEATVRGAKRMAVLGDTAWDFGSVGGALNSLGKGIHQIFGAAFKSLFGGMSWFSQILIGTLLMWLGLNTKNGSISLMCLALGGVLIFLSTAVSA
# [11] = system: AdV 7 Gomen strain; experiment: Adenovirus type 7 replication in bronchial HAE (qPCR); assay type: cell-based; settings: 50 μM, 24 hours
# [12] = biological target: Protein N (SARS-CoV-2) (Severe acute respiratory syndrome coronavirus 2, UniProt P0DTC9); experiment: BIACORE surface plasmon resonance interaction with immobilized peptide; assay type: binding; settings: analyte 10-200 nM
# [13] = system: respiratory syncytial virus (RSV); experiment: Respiratory syncytial virus replication in bronchial HAE (RT-qPCR); assay type: cell-based; settings: 50 μM, 10 days
# [14] = system: Influenza A H1N1; assay type: cell-based; settings: 50 μM; tracheo-bronchial HAE
# [15] = system: SARS-CoV-2; settings: VeroE6
compound,measurement,setting,value
RVTQMNLADRLASLYDKV [SEQ ID NO: 16],Inhibition %,"[1]; 96 h, 100 μM",79.6%
RVTQANLNDRLASLYDKV [SEQ ID NO: 8],Dengue 2 Inhib. %,[2]; 50 μM,72%
same,Bocavirus HBoV-1 Inhib. %,[3],87%
same,Inhibition %,"[1]; 96 h, 100 μM",90.2%
same,Bronchial HAE Inhibition %,"[4]; 72 h, 100 μM",92%
same,Nasal HAE Inhibition %,"[4]; 72 h, 100 μM",88%
same,Parainfluenza Type 3 Inhib. %,[5],73%
NLNDRLASLYDKV [SEQ ID NO: 15],interaction,[6],showed interaction
same,Inhibition %,"[1]; 96 h, 50 μM",87.1%
same,Bronchial HAE Inhibition %,"[4]; 72 h, 50 μM",90%
same,Nasal HAE Inhibition %,"[4]; 72 h, 50 μM",86%
same,Parainfluenza Type 3 Inhib. %,[5],69%
same,Herpes simplex HSV-1 Inhib. %,[7]; 50 μM,81%
same,Kd,[8],1270 nM
same,Kd,[9],189 nM
same,interaction,[9],showed interaction
same,Kd,[10],0.0624 µM
same,interaction,[10],showed interaction
same,Adenovirus Ad7 Inhib. %,[11],78%
same,Kd,[12],7820 nM
"SEQ ID NO: 19: synthetic peptide related to SEQ ID NO: 1, obtained by solid phase synthesis (RVTQMNLNDRLASLYDKV; Description of the Artificial Sequence synthetic peptide where N6 is a D amino acid)",Dengue 2 Inhib. %,[2]; 50 μM,68%
same,Bocavirus HBoV-1 Inhib. %,[3],85%
same,Sincitial respiratory virus Inhib. %,[13],75%
same,Inhibition %,[1]; 50 µM,91.8%
same,Bronchial HAE Inhibition %,[4]; 100 µM,86%
same,Nasal HAE Inhibition %,[4]; 100 µM,82%
same,Influenza A H1N1 Inhib. %,[14],67%
Ivermectin,IC50,"[15]; read-out: IC50 Compound + peptide SEQ ID NO: 1, in presence of peptide SEQ ID NO: 1 at 10 μM",210 nM
same,IC50,"[15]; read-out: IC50 Compound + peptide SEQ ID NO: 2, in presence of peptide SEQ ID NO: 2",150 nM
same,IC50,"[15]; read-out: IC50 Compound + peptide SEQ ID NO: 3, in presence of peptide SEQ ID NO: 3",200 nM
same,IC50,"[15]; read-out: IC50 Compound, compound alone",2700 nM
Ac-RVTQMNLNDRLASLYDKV [SEQ ID NO: 2],Dengue 2 Inhib. %,[2]; 50 μM,88%
same,interaction,[6],showed interaction
same,Sincitial respiratory virus Inhib. %,[13],83%
same,Inhibition %,"[1]; 96 h, 50 μM",95.1%
same,Bronchial HAE Inhibition %,"[4]; 72 h, 50 μM",90%
same,Nasal HAE Inhibition %,"[4]; 72 h, 50 μM",80%
same,Influenza A H1N1 Inhib. %,[14],90%
same,Parainfluenza Type 3 Inhib. %,[5],89%
same,Kd,[8],754 nM
same,Kd,[9],24.3 nM
same,interaction,[9],showed interaction
same,Kd,[10],18.2 µM
same,interaction,[10],showed interaction
same,Kd,[12],523 nM
CSCC[C@H](NC(=O)[C@H](CCC(N)=O)NC(=O)[C@@H](NC(=O)[C@@H](NC(=O)[C@H](CCCNC(=N)N)NC(C)=O)C(C)C)[C@@H](C)O)C(=O)N[C@@H](CC(N)=O)C(=O)N[C@@H](CC(C)C)C(=O)N[C@@H](CC(N)=O)C(=O)N[C@H](CC(=O)O)C(=O)N[C@@H](CCCNC(=N)N)C(=O)N[C@@H](CC(C)C)C(=O)N[C@@H](C)C(=O)N[C@@H](CO)C(=O)N[C@@H](CC(C)C)C(=O)N[C@@H](Cc1ccc(O)cc1)C(=O)N[C@@H](CC(=O)O)C(=O)N[C@@H](CCCCN)C(=O)N[C@H](C(=O)O)C(C)C [SEQ ID NO: 5] (Ac-RVTQMNLN[dD]RLASLYDKV-OH; C-terminus assumed),Inhibition %,"[1]; 96 h, 100 μM",85.3%
RVTAMNLNDRLASLYDKV [SEQ ID NO: 7],Dengue 2 Inhib. %,[2]; 100 μM,87%
same,Inhibition %,"[1]; 96 h, 100 μM",92.4%
same,Influenza A H1N1 Inhib. %,[14],70%
same,Adenovirus Ad7 Inhib. %,[11],69%
RVTQMNLNDRLAALYDKV [SEQ ID NO: 18],Inhibition %,"[1]; 96 h, 100 μM",69.2%
"SEQ ID NO: 20: synthetic peptide related to SEQ ID NO: 1, obtained by solid phase synthesis (RVTQMNLNDRLASLYDKV; Description of the Artificial Sequence synthetic peptide where N8 is a D amino acid)",Bocavirus HBoV-1 Inhib. %,[3],67%
same,Inhibition %,[1]; 50 µM,69.8%
same,Parainfluenza Type 3 Inhib. %,[5],79%
same,Herpes simplex HSV-1 Inhib. %,[7]; 100 μM,70%
RVTQMNLNDRLASLYDAV [SEQ ID NO: 13],Sincitial respiratory virus Inhib. %,[13],91%
same,Inhibition %,"[1]; 96 h, 100 μM",90.5%
same,Bronchial HAE Inhibition %,"[4]; 72 h, 50 μM",89%
same,Nasal HAE Inhibition %,"[4]; 72 h, 50 μM",79%
same,Parainfluenza Type 3 Inhib. %,[5],90%
same,Herpes simplex HSV-1 Inhib. %,[7]; 50 μM,78%
same,Adenovirus Ad7 Inhib. %,[11],76%
RVTQMNLNDRAASLYDKV [SEQ ID NO: 21],Inhibition %,"[1]; 96 h, 100 μM",25.5%
same,inhibition of SARS-CoV-2 in primary cultures of human airway epithelium,[4],≤ 20%
CSCC[C@H](NC(=O)[C@H](CCC(N)=O)NC(=O)[C@@H](NC(=O)[C@@H](NC(=O)[C@H](CCCNC(=N)N)NC(C)=O)C(C)C)[C@@H](C)O)C(=O)N[C@H](CC(N)=O)C(=O)N[C@@H](CC(C)C)C(=O)N[C@@H](CC(N)=O)C(=O)N[C@@H](CC(=O)O)C(=O)N[C@@H](CCCNC(=N)N)C(=O)N[C@@H](CC(C)C)C(=O)N[C@@H](C)C(=O)N[C@@H](CO)C(=O)N[C@@H](CC(C)C)C(=O)N[C@@H](Cc1ccc(O)cc1)C(=O)N[C@@H](CC(=O)O)C(=O)N[C@@H](CCCCN)C(=O)N[C@H](C(=O)O)C(C)C [SEQ ID NO: 3] (Ac-RVTQM[dN]LNDRLASLYDKV-OH; C-terminus assumed),Bocavirus HBoV-1 Inhib. %,[3],80%
same,Sincitial respiratory virus Inhib. %,[13],87%
same,Inhibition %,"[1]; 96 h, 100 μM",85.4%
same,Influenza A H1N1 Inhib. %,[14],93%
same,Herpes simplex HSV-1 Inhib. %,[7]; 50 μM,73%
same,Adenovirus Ad7 Inhib. %,[11],82%
RVTQMNLNDRLVSLYDKV [SEQ ID NO: 11],Inhibition %,"[1]; 96 h, 100 μM",73.9%
CSCC[C@H](NC(=O)[C@H](CCC(N)=O)NC(=O)[C@@H](NC(=O)[C@@H](NC(=O)[C@H](CCCNC(=N)N)NC(C)=O)C(C)C)[C@@H](C)O)C(=O)N[C@@H](CC(N)=O)C(=O)N[C@@H](CC(C)C)C(=O)N[C@H](CC(N)=O)C(=O)N[C@@H](CC(=O)O)C(=O)N[C@@H](CCCNC(=N)N)C(=O)N[C@@H](CC(C)C)C(=O)N[C@@H](C)C(=O)N[C@@H](CO)C(=O)N[C@@H](CC(C)C)C(=O)N[C@@H](Cc1ccc(O)cc1)C(=O)N[C@@H](CC(=O)O)C(=O)N[C@@H](CCCCN)C(=O)N[C@H](C(=O)O)C(C)C [SEQ ID NO: 4] (Ac-RVTQMNL[dN]DRLASLYDKV-OH; C-terminus assumed),Inhibition %,"[1]; 96 h, 100 μM",92.4%
same,Bronchial HAE Inhibition %,"[4]; 72 h, 100 μM",85%
same,Nasal HAE Inhibition %,"[4]; 72 h, 100 μM",80%
RATQMNLNDRLASLYDKV [SEQ ID NO: 6],Inhibition %,"[1]; 96 h, 100 μM",82.2%
RVTQMNANDRLASLYDKV [SEQ ID NO: 9],Bocavirus HBoV-1 Inhib. %,[3],75%
same,Inhibition %,"[1]; 96 h, 100 μM",83.7%
same,Influenza A H1N1 Inhib. %,[14],89%
same,Adenovirus Ad7 Inhib. %,[11],79%
RVTQMNLNDRLASLYAKV [SEQ ID NO: 12],Inhibition %,"[1]; 96 h, 100 μM",77.4%
RVTQMNLNDALASLYDKV [SEQ ID NO: 17],Inhibition %,"[1]; 96 h, 100 μM",72.7%
NDRLASLYDKV [SEQ ID NO: 14],Dengue 2 Inhib. %,[2]; 50 μM,70%
same,interaction,[6],showed interaction
same,Sincitial respiratory virus Inhib. %,[13],82%
same,Inhibition %,"[1]; 96 h, 50 μM",83.2%
same,Influenza A H1N1 Inhib. %,[14],79%
same,Kd,[8],5910 nM
same,Kd,[9],4670 nM
same,interaction,[9],showed interaction
same,Kd,[10],3.2 µM
same,interaction,[10],showed interaction
same,Kd,[12],1140 nM
RVTQMNLNARLASLYDKV [SEQ ID NO: 10],Inhibition %,"[1]; 96 h, 100 μM",70.8%
